One data set is described as follows: in vivo. Conditions: male, Wistar, rat, po. The protocol:
The EOC concentration in the aliquots of each specific section ((i) cargo release experiments, Section 2.6; (ii) EOCs permeability across the intestinal barriers, Section 2.13; and (iii) in vivo pharmacokinetic assays, Section 2.17) was analyzed by HPLC. For Thy and Eug molecules, the mobile phase used was ACN:H2O 50:50 v/v with 0.05% of TFA and absorbance detector using λex = 280 nm. For Cin, the mobile phase was ACN:H2O 85:15 v/v with 0.05% of TFA and λex = 254 nm. […] of volume injection were used and a flow of 1 mL/min was fixed. The methods were previously validated with adequate linearity, precision and accuracy (R > 0.99 and coefficient of variation < 5%).
In vivo experiments with M41-Cin-L in a Wistar rat model were carried out in order to study the concentration of cinnamaldehyde, free and encapsulated, in plasma and in the different gastrointestinal sections. The animal study was approved by the Scientific Committee of the Faculty of Pharmacy Universidad Miguel Hernández, Elche (project reference DI-MBS-02-15) and followed the guidelines described in the EC Directive 86/609, the Council of the Europe Convention ETS 123 and Spanish national laws governing the use of animals in research (Real Decreto 223/1988, BOE 67, 18-3-98:8509-8511). […] The concentration of Cin in each sample was determined by HPLC following the methodology described in Section 2.7.

The next data set has as its system MCP-1. Description: Inflammatory response measurement: MCP-1 release in apical media. Format: cell-based, Human. Particulars: 24 h, EOC 200 μM free or in M41-EOC-L; LPS 10 μg/mL positive control. The protocol: The Caco-2 cell epithelia were incubated in cell culture medium with each treatment, free EOCs (200 μM) and […] solids (concentration of particles corresponding to a 200 μM EOC-payload), during the time required to perform the assay: 90 min for EOCs permeability (see Section 2.13) and 24 h for the other interaction studies (Lucifer yellow, Section 2.14, and inflammatory response measurement, Section 2.15). In addition, some cell inserts were incubated with free medium at the same conditions as negative controls. TEER measurements were performed before and after each treatment to ascertain the validity of the membranes before the assay and to know the treatment's effect on them. Inflammatory cytokine and chemokine release (IL-8, MCP-1) was measured in the apical media from the enterocyte layers after 24 h of treatment with the corresponding […]-EOC-L and free EOCs. For the measurement, a Bio-Plex 1 MAGPIX TM Multiplex Reader (Bio-Rad) was employed according to the manufacturer-described-procedure. The cells were stimulated with 10 μg/mL LPS as positive control.

On to `O=C/C=C/c1ccccc1` [Cin, cinnamaldehyde], for which, in “in vivo”, the time to peak (Tmax) (usually the time at which the peak concentration occurs) is 0.75 h and the half-life (usually how long it takes for the measured level to halve) is 1.36 h.

Turning to `C=CCc1ccc(O)c(OC)c1` [Eug, eugenol], the “MCP-1 levels in the apical compartment” value in the data set on MCP-1 was “increases its levels”.

For the origin of these results see article PMC8309014, “Lactose-Gated Mesoporous Silica Particles for Intestinal Controlled Delivery of Essential Oil Components: An In Vitro and In Vivo Study” (Pharmaceutics, 2021).
